Experimental data as given in patent US7473418B2, “Pan cancer oncolytic vectors and methods of use thereof” (Cell Genesys, Inc., priority 2004, dated 2009).

What was measured:
[1] = tested on: LNCaP cells; experiment: In vitro combination of CG5757 and chemotherapeutic agents; format: cell-based, human
Experimental: (§1) Potential synergism between existing chemotherapeutic agents and the replication competent vectors of the present invention was investigated. Co-application of CG5757 with a variety of known chemotherapeutic agents was evaluated using an in vitro cell assay. A variety of known chemotherapeutic agents were tested in combination with CG5757 for their in vitro cytotoxic effect on Hep3B and LNCaP cells.

[2] = tested on: Hep3B cells; experiment: as above; format: cell-based, human
Experimental: as §1

Row | SMILES | combination effect with CG5757 [1] | combination effect with CG5757 [2] | cytotoxicity ([2]; 5 ng/ml, agent alone)
1 | CC(=O)O[C@H]1C(=O)[C@@]2(C)[C@H]([C@H](OC(=O)c3ccccc3)[C@]3(O)C[C@H](OC(=O)[C@H](O)[C@@H](NC(=O)c4ccccc4)c4ccccc4)C(C)=C1C3(C)C)[C@]1(OC(C)=O)CO[C@@H]1C[C@@H]2O [Taxol] | potential synergistic cytotoxicity | – | –
2 | COc1cccc2c1C(=O)c1c(O)c3c(c(O)c1C2=O)C[C@@](O)(C(=O)CO)C[C@@H]3O[C@H]1C[C@H](N)[C@H](O)[C@H](C)O1 [doxorubicin] | – | potential synergistic cytotoxicity | did not generate cytotoxicity
